Assay [1] deals with Rat1A cells and Ink4A;Arf-/- astrocytes. In words: Quantitative analysis of chromosome segregation defects in mitoses. Type of assay: cell-based. The source says:
Quantitative analysis of metaphase spreads for chromosome segregation defects in Ink4A; ARF−/− astrocytes expressing vector control or FGFR3-TACC3 (upper panel). Microscope imaging analysis of chromosome segregation defects in Ink4A; Arf−/− astrocytes expressing FGFR3-TACC3 or vector control. Representative images of cells with chromosome missegregation. Arrows point to chromosome misalignments, lagging chromosomes and chromosome bridges.
Confocal microscopy imaging. For immunofluorescence of fixed cells, images were recorded with a Z-optical spacing of 0.25 μm using a Nikon AIR MP and a 60×1.3 oil objective and analyzed using ImageJ software (National Institute of Health). For live-cell analyses, Rat1A cells infected with pLNCX-H2B retrovirus and transduced with lentiviral vector or FGFR3-TACC3 fusion were seeded in glass bottom dishes in phenol red free DMEM and followed by time-lapse microscopy using the Nikon AIR MP biostation at 37° C. and 5% CO2/95% air. Images with a Z-optical spacing of 1 μm were recorded every 4 min for 8 h. Images of unchallenged mitosis from early prophase until cytokinesis were processed using ImageJ software (National Institute of Health). The time-point of nuclear envelope breakdown (NEB) was defined as the first frame showing loss of smooth appearance of chromatin and anaphase was the first frame when chromosome movement towards the poles became apparent. […]

Assay [2] has as its system Ink4A;Arf-/- astrocytes in immunodeficient mice. The assay is described as follows: Subcutaneous tumor xenograft formation by lentivirus-transduced Ink4A;Arf-/- astrocytes. Type of assay: in vivo, mouse. An excerpt: FIG. 3B are photomicrographs showing of immunofluoresence staining of tumors from mice injected with Ink4A; Arf−/− astrocytes expressing FGFR3-TACC3 showing positivity for glioma-specific (Nestin, Oig2 and GFAP) and proliferation markers (Ki67 and pHH3). Sub-cutaneous tumors were generated by Ink4A; Arf−/− astrocytes expressing FGFR-TACC fusions.
Subcutaneous xenografts and drug treatment. […] For experiments with FGFR inhibitors, mice carrying ˜200-300 mm 3 subcutaneous tumors derived from Ink4A; Arf−/− astrocytes were randomized to receive 50 mg/kg PD173074 in 0.05 M lactate buffer (pH 5) or an equal volume of lactate buffer by oral gavage. Treatment was administered for three cycles consisting of four consecutive days followed by two days of rest. […] Data are expressed as mean±SE.

The test system of assay [3] is Rat1. The assay is described as follows: Soft agar colony assay, Rat1 cells. Type of assay: cell-based, rat. To be noted: Rat1 cells transduced with the construct. The source says:
FGFR1-TACC1 and FGFR3-TACC3 induce anchorage-independent growth in Rat1A fibroblasts. The number of soft agar colonies was scored from triplicate samples 14 days after plating. Representative microphotographs are shown.

The source of these data is patent publication US12006503B2, “Fusion proteins and methods thereof” (The Trustees of Columbia University in the City of New York, priority 2012, dated 2024).

With “FGFR1-TACC1: fusion protein in which the TK domain of FGFR1 is fused upstream of the TACC domain of TACC1 (SEQ ID NO: 150)”, in assay [1], the “increase of chromosomal segregation errors versus control cells” value was “three to five fold increase”. In assay [2] (Ink4A;Arf-/- astrocytes, immunodeficient mice), the “mice with tumors after subcutaneous injection of astrocytes expressing the fusion protein” value came out at 100%. Moreover, in assay [2] (Ink4Arf-/- astrocytes expressing the construct), the “Subcutaneous tumor xenografts (tumors formed/injections)” value is listed as 8/8. In addition, the soft agar colonies in assay [3] came out at 225.3 ± 10.0.
